According to patent US8501936B2 (priority 2009, dated 2013):

Tests used:
human FAK = human FAK (Homo sapiens (Human), UniProt Q05397); conditions: read-out: FAK IC50
human JAK2 = human JAK2 (Homo sapiens (Human), UniProt O60674); conditions: read-out: JAK2 IC50
Chain of human JAK2 (O60674 815-1132): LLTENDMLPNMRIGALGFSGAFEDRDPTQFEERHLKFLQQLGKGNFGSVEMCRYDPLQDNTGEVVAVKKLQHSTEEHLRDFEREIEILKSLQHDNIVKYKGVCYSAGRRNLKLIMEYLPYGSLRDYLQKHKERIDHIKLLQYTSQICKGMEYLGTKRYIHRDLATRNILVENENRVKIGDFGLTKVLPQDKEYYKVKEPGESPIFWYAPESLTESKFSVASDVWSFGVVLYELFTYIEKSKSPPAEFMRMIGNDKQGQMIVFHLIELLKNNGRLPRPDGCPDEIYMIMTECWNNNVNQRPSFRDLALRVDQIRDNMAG

Chain of human FAK (Q05397 whole entry): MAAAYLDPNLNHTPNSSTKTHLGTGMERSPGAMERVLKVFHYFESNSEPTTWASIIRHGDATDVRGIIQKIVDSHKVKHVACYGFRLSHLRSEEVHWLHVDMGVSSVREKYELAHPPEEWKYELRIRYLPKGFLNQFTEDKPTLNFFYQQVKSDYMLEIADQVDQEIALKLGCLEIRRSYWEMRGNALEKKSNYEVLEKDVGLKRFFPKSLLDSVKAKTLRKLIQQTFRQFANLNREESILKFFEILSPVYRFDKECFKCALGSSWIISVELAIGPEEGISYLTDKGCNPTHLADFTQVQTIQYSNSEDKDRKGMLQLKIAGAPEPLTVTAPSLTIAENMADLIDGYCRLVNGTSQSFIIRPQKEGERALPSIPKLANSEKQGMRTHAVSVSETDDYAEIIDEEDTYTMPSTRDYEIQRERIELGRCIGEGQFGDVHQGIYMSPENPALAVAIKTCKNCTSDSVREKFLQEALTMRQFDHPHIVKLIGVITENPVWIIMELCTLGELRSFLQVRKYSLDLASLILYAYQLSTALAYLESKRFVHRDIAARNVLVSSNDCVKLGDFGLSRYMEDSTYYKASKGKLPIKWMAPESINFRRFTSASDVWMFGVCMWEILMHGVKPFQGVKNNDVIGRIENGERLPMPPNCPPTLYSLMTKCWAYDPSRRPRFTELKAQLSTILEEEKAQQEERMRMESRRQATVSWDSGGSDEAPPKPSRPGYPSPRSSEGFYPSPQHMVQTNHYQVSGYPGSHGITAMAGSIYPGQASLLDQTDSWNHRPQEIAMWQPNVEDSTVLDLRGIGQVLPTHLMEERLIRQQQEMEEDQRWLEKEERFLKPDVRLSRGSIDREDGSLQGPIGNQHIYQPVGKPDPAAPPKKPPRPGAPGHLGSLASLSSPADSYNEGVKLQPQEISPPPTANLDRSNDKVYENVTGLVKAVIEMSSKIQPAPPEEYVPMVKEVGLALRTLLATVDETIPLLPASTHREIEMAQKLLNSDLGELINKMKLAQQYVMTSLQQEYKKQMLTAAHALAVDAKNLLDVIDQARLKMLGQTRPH

In the case of `CN1CCN(c2cccc(Nc3nc4c(NCc5cccc(S(C)(=O)=O)c5)cccn4n3)c2)CC1` [Example 161, N(8)-(3-Methanesulfonyl-benzyl)-N(2)-[3-(4-methyl-piperazin-1-yl)-phenyl]-[1,2,4]triazolo[1,5-a]pyridine-2,8-diamine], the IC50 (human FAK) is reported as 10000 nM and the IC50 (human JAK2) is reported as 399 nM.
In the case of `CN1CCC(c2ccc(Nc3nc4c(NCc5cccc(S(C)(=O)=O)c5)cccn4n3)cc2)CC1` [Example 162, N(8)-(3-Methanesulfonyl-benzyl)-N(2)-[4-(1-methyl-piperidin-4-yl)-phenyl]-[1,2,4]triazolo[1,5-a]pyridine-2,8-diamine], the IC50 (human FAK) is reported as 10000 nM and the IC50 (human JAK2) is reported as 328 nM.
`CN1CCN(c2ccc(Nc3nc4c(NCC5CCN(C(=O)OC(C)(C)C)C5)cccn4n3)cc2)CC1` (centres unmarked) [Example 163, 3-({2-[4-(4-Methyl-piperazin-1-yl)-phenylamino]-[1,2,4]triazolo[1,5-a]pyridin-8-ylamino}-methyl)-pyrrolidine-1-carboxylic acid tert-butyl ester] was tested, and the IC50 (human FAK) was 10000 nM and the IC50 (human JAK2) was 98 nM.
For `CN1CCN(c2ccc(Nc3nc4c(Nc5ccccc5CS(C)(=O)=O)cccn4n3)cc2)CC1` [Example 164, N(8)-(2-Methanesulfonylmethyl-phenyl)-N(2)-[4-(4-methyl-piperazin-1-yl)-phenyl]-[1,2,4]triazolo[1,5-a]pyridine-2,8-diamine], the IC50 (human FAK) was 1280 nM and the IC50 (human JAK2) was 22.1 nM.
For `CN1CCC(c2ccc(Nc3nc4c(Nc5ccccc5CS(C)(=O)=O)cccn4n3)cc2)CC1` [Example 165, N(8)-(2-Methanesulfonylmethyl-phenyl)-N(2)-[4-(1-methyl-piperidin-4-yl)-phenyl]-[1,2,4]triazolo[1,5-a]pyridine-2,8-diamine], the IC50 (human FAK) was 2000 nM and the IC50 (human JAK2) was 39.9 nM.
With `CN1Cc2ccc(Nc3nc4c(NCc5cccnc5N(C)S(C)(=O)=O)cccn4n3)cc2C1` [Example 166, N-Methyl-N-(3-{[2-(2-methyl-2,3-dihydro-1H-isoindol-5-ylamino)-[1,2,4]triazolo[1,5-a]pyridin-8-ylamino]-methyl}-pyridin-2-yl)-methanesulfonamide] the IC50 (human FAK) was 48.1 nM and the IC50 (human JAK2) was 12.8 nM.
Work on `CN1Cc2ccc(Nc3nc4c(NCc5ccccc5N(C)S(C)(=O)=O)cccn4n3)cc2C1` [Example 167, N-Methyl-N-(2-{[2-(2-methyl-2,3-dihydro-1H-isoindol-5-ylamino)-[1,2,4]triazolo[1,5-a]pyridin-8-ylamino]-methyl}-phenyl)-methanesulfonamide] yielded an IC50 (human FAK) of 17.8 nM and an IC50 (human JAK2) of 9.19 nM.
`CN1Cc2ccc(Nc3nc4c(-c5ccc(S(C)(=O)=O)cc5)cccn4n3)cc2C1` [Example 168, [8-(4-Methanesulfonyl-phenyl)-[1,2,4]triazolo[1,5-a]pyridin-2-yl]-(2-methyl-2,3-dihydro-1H-isoindol-5-yl)-amine] was tested, and the IC50 (human FAK) was 816 nM and the IC50 (human JAK2) was 0.73 nM.
With `CN1CCN(c2ccc(Nc3nc4c(NCc5cccc(N(C)S(C)(=O)=O)c5)cccn4n3)cc2)CC1` [Example 169, N-Methyl-N-[3-({2-[4-(4-methyl-piperazin-1-yl)-phenylamino]-[1,2,4]triazolo[1,5-a]pyridin-8-ylamino}-methyl)-phenyl]-methanesulfonamide] the IC50 (human FAK) was 6500 nM and the IC50 (human JAK2) was 145 nM.
`CN1CCN(c2ccc(Nc3nc4c(Nc5ccccc5CN(C)S(C)(=O)=O)cccn4n3)cc2)CC1` [Example 171, N-Methyl-N-(2-{2-[4-(4-methyl-piperazin-1-yl)-phenylamino]-[1,2,4]triazolo[1,5-a]pyridin-8-ylamino}-benzyl)-methanesulfonamide] was tested, and the IC50 (human FAK) was 999 nM and the IC50 (human JAK2) was 70.8 nM.
`CN1CCN(c2cccc(Nc3nc4c(Nc5ccccc5CN(C)S(C)(=O)=O)cccn4n3)c2)CC1` [Example 172, N-Methyl-N-(2-{2-[3-(4-methyl-piperazin-1-yl)-phenylamino]-[1,2,4]triazolo[1,5-a]pyridin-8-ylamino}-benzyl)-methanesulfonamide] gave an IC50 (human FAK) of 3000 nM and an IC50 (human JAK2) of 453 nM.
`CN(Cc1ccccc1Nc1cccn2nc(Nc3ccc(OCCN4CCCC4)cc3)nc12)S(C)(=O)=O` [Example 173, N-Methyl-N-(2-{2-[4-(2-pyrrolidin-1-yl-ethoxy)-phenylamino]-[1,2,4]triazolo[1,5-a]pyridin-8-ylamino}-benzyl)-methanesulfonamide] showed an IC50 (human FAK) of 2000 nM and an IC50 (human JAK2) of 143 nM.
`CN1CCC(c2ccc(Nc3nc4c(Nc5ccccc5CN(C)S(C)(=O)=O)cccn4n3)cc2)CC1` [Example 174, N-Methyl-N-(2-{2-[4-(1-methyl-piperidin-4-yl)-phenylamino]-[1,2,4]triazolo[1,5-a]pyridin-8-ylamino}-benzyl)-methanesulfonamide] showed an IC50 (human FAK) of 10000 nM and an IC50 (human JAK2) of 111 nM.
`CN1CCN(c2ccc(Nc3nc4c(-c5cccc(CN(C)S(C)(=O)=O)c5)cccn4n3)cc2)CC1` [Example 175, N-Methyl-N-(3-{2-[4-(4-methyl-piperazin-1-yl)-phenylamino]-[1,2,4]triazolo[1,5-a]pyridin-8-yl}-benzyl)-methanesulfonamide] gave an IC50 (human FAK) of 3000 nM and an IC50 (human JAK2) of 7.95 nM.
For `CN1CCN(c2cccc(Nc3nc4c(-c5cccc(CN(C)S(C)(=O)=O)c5)cccn4n3)c2)CC1` [Example 176, N-Methyl-N-(3-{2-[3-(4-methyl-piperazin-1-yl)-phenylamino]-[1,2,4]triazolo[1,5-a]pyridin-8-yl}-benzyl)-methanesulfonamide], the IC50 (human FAK) was 3000 nM and the IC50 (human JAK2) was 5.94 nM.
Work on `CN(Cc1cccc(-c2cccn3nc(Nc4ccc(OCCN5CCCC5)cc4)nc23)c1)S(C)(=O)=O` [Example 177, N-Methyl-N-(3-{2-[4-(2-pyrrolidin-1-yl-ethoxy)-phenylamino]-[1,2,4]triazolo[1,5-a]pyridin-8-yl}-benzyl)-methanesulfonamide] yielded an IC50 (human FAK) of 3000 nM and an IC50 (human JAK2) of 7.34 nM.
`CC(C)(C)OC(=O)N1CCN(c2cccc(Nc3nc4c(-c5ccc(S(C)(=O)=O)cc5)cccn4n3)c2)CC1` [Example 179, 4-{3-[8-(4-Methanesulfonyl-phenyl)-[1,2,4]triazolo[1,5-a]pyridin-2-ylamino]-phenyl}-piperazine-1-carboxylic acid tert-butyl ester] showed an IC50 (human FAK) of 10000 nM and an IC50 (human JAK2) of 3.72 nM.
`CS(=O)(=O)c1ccc(-c2cccn3nc(Nc4cccc(N5CCNCC5)c4)nc23)cc1` [Example 181, [8-(4-Methanesulfonyl-phenyl)-[1,2,4]triazolo[1,5-a]pyridin-2-yl]-(3-piperazin-1-yl-phenyl)-amine] was tested, and the IC50 (human FAK) was 1130 nM and the IC50 (human JAK2) was 0.97 nM.
Work on `CS(=O)(=O)c1ccc(-c2cccn3nc(Nc4cccc(N5CCN(CC(N)=O)CC5)c4)nc23)cc1` [Example 183, 2-(4-{3-[8-(4-Methanesulfonyl-phenyl)-[1,2,4]triazolo[1,5-a]pyridin-2-ylamino]-phenyl}-piperazin-1-yl)-acetamide] yielded an IC50 (human FAK) of 6500 nM and an IC50 (human JAK2) of 0.65 nM.
`CS(=O)(=O)c1ccc(-c2cccn3nc(Nc4cccc(C5CCN(CC(N)=O)CC5)c4)nc23)cc1` [Example 184, 2-(4-{3-[8-(4-Methanesulfonyl-phenyl)-[1,2,4]triazolo[1,5-a]pyridin-2-ylamino]-phenyl}-piperidin-1-yl)-acetamide] was tested, and the IC50 (human FAK) was 384 nM and the IC50 (human JAK2) was 0.41 nM.
In the case of `CN1CCN(c2ccc(Nc3nc4c(N(C)Cc5ccccc5N(C)S(C)(=O)=O)cccn4n3)cc2)CC1` [Example 185, N-Methyl-N-{2-[(methyl-{2-[4-(4-methyl-piperazin-1-yl)-phenylamino]-[1,2,4]triazolo[1,5-a]pyridin-8-yl}-amino)-methyl]-phenyl}-methanesulfonamide], the IC50 (human FAK) is reported as 62.5 nM and the IC50 (human JAK2) is reported as 51.1 nM.
Work on `CS(=O)(=O)c1ccc(-c2cccn3nc(Nc4cccc(N5CCN(CCCF)CC5)c4)nc23)cc1` [Example 187, {3-[4-(3-Fluoro-propyl)-piperazin-1-yl]-phenyl}-[8-(4-methanesulfonyl-phenyl)-[1,2,4]triazolo[1,5-a]pyridin-2-yl]-amine] yielded an IC50 (human FAK) of 2440 nM and an IC50 (human JAK2) of 4.93 nM.
For `CN1CCN(c2ccc(Nc3nc4c(C#Cc5ccccc5N(C)S(C)(=O)=O)cccn4n3)cc2)CC1` [Example 189, N-Methyl-N-(2-{2-[4-(4-methyl-piperazin-1-yl)-phenylamino]-[1,2,4]triazolo[1,5-a]pyridin-8-ylethynyl}-phenyl)-methanesulfonamide], the IC50 (human FAK) was 522 nM and the IC50 (human JAK2) was 2.61 nM.
With `CN1CCN(c2cccc(Nc3nc4c(C#Cc5ccccc5N(C)S(C)(=O)=O)cccn4n3)c2)CC1` [Example 192, N-Methyl-N-(2-{2-[3-(4-methyl-piperazin-1-yl)-phenylamino]-[1,2,4]triazolo[1,5-a]pyridin-8-ylethynyl}-phenyl)-methanesulfonamide] the IC50 (human FAK) was 2420 nM and the IC50 (human JAK2) was 23.9 nM.
`CN1Cc2ccc(Nc3nc4c(C#Cc5ccccc5N(C)S(C)(=O)=O)cccn4n3)cc2C1` [Example 193, N-Methyl-N-{2-[2-(2-methyl-2,3-dihydro-1H-isoindol-5-ylamino)-[1,2,4]triazolo[1,5-a]pyridin-8-ylethynyl]-phenyl}-methanesulfonamide] was tested, and the IC50 (human FAK) was 3000 nM and the IC50 (human JAK2) was 11.5 nM.
`CN1CCN(c2ccc(Nc3nc4c(CCc5ccccc5N(C)S(C)(=O)=O)cccn4n3)cc2)CC1` [Example 194, N-Methyl-N-[2-(2-{2-[4-(4-methyl-piperazin-1-yl)-phenylamino]-[1,2,4]triazolo[1,5-a]pyridin-8-yl}-ethyl)-phenyl]-methanesulfonamide] gave an IC50 (human FAK) of 41.7 nM and an IC50 (human JAK2) of 218 nM.
Work on `CN1CCN(c2ccc(Nc3nc4c(OCc5ccccc5N(C)S(C)(=O)=O)cccn4n3)cc2)CC1` [Example 195, N-Methyl-N-(2-{2-[4-(4-methyl-piperazin-1-yl)-phenylamino]-[1,2,4]triazolo[1,5-a]pyridin-8-yloxymethyl}-phenyl)-methanesulfonamide] yielded an IC50 (human FAK) of 21.8 nM and an IC50 (human JAK2) of 15 nM.
Compound `CN1CCN(c2ccc(Nc3nc4c(/C=C/c5ccccc5N(C)S(C)(=O)=O)cccn4n3)cc2)CC1` [Example 196, N-Methyl-N-[2-((E)-2-{2-[4-(4-methyl-piperazin-1-yl)-phenylamino]-[1,2,4]triazolo[1,5-a]pyridin-8-yl}-vinyl)-phenyl]-methanesulfonamide] has an IC50 (human FAK) of 999 nM and an IC50 (human JAK2) of 32.1 nM.
